Read-outs that look alike come from different tables or passages of the source.
How the values were obtained:
BRDT(2) = target: T1, BRDT(2) (Homo sapiens, UniProt Q58F21); test: biochemical; design: thermal shift assay (real-time PCR machine), melting temperature shift of recombinant bromodomains at 2 uM protein
T1 construct: bromodomain 2
Description: (§1) The recombinant bromodomains at 2 μM were mixed with 10 μM inhibitors. The assays and data evaluation for melting temperatures were performed using a Real-Time PCR Mx3005p machine (Stratagene) and the protocols previously described. Experiments profiling the final compound (PNZ5) were performed in quadruplicates. […] Since its discovery in our own labs, similar inhibitors have also been disclosed by researchers at Boehringer Ingelheim [reference: patent, WO 2014/154760 [31]]. The inhibitor contains two possible acetyl-lysine mimetic moieties. In order to obtain molecular insights on the interaction of the developed inhibitor, the crystal structure of the first bromodomain of BRD4 in complex with PNZ5 was solved at 1.85 Å (Figure 2C and Supplementary Table 4, 5FBX.pdb). The inhibitor, coordinating residues and water molecules were well defined by the electron density. The dimethylisoxazole moiety mimicked the acetyl lysine side chain and formed two canonical hydrogen-bond interactions with Asn140 and water mediated hydrogen-bond with Tyr 97 (Figure 2C). The common network of waters within the binding site was also conserved in the BRD4(1)-PNZ5 complex. The compound was further stabilized by lipophilic interactions with residues forming the binding site Leu92, Leu94, Ile146. The [compound left out] substituent was well accommodated next to the WPF shelf, as well as the N1-methyl substituent that formed hydrophobic interactions with Trp81. The carbonyl on the isoindolinone established a water-mediated hydrogen bond with Lys91.

BRD2(1) = target: T2, BRD2(1) (Homo sapiens, UniProt P25440); test: biochemical; design: thermal shift assay (real-time PCR machine), melting temperature shift of recombinant bromodomains at 2 uM protein
T2 construct: bromodomain 1
Description: as §1

ASH1L = target: T3, ASH1L (Homo sapiens, UniProt Q9NR48); test: biochemical; design: thermal shift assay (real-time PCR machine), melting temperature shift of recombinant bromodomains at 2 uM protein
T3 construct: bromodomain
Description: as §1

MLL = target: T4, MLL (Homo sapiens, UniProt Q03164); test: biochemical; design: thermal shift assay (real-time PCR machine), melting temperature shift of recombinant bromodomains at 2 uM protein
T4 construct: gene KMT2A; bromodomain
Description: as §1

PB1(4) = target: T5, PB1(4) (Homo sapiens, UniProt Q86U86); test: biochemical; design: thermal shift assay (real-time PCR machine), melting temperature shift of recombinant bromodomains at 2 uM protein
T5 construct: gene PBRM1; bromodomain 4
Description: as §1

FALZ = target: T6, FALZ (Homo sapiens, UniProt Q12830); test: biochemical; design: thermal shift assay (real-time PCR machine), melting temperature shift of recombinant bromodomains at 2 uM protein
T6 construct: gene BPTF; bromodomain
Description: as §1

[1] = target: T7, BRD4(1), first bromodomain of BRD4 (Homo sapiens, UniProt O60885); test: biochemical; design: thermal shift assay (real-time PCR machine), melting temperature shift of recombinant bromodomains at 2 uM protein
T7 construct: first bromodomain; BRD4_HUMAN O60884-1 fragment 44-168 (crystallography)
Description: as §1

CREBBP = target: T8, CREBBP (Homo sapiens, UniProt Q92793); test: biochemical; design: thermal shift assay (real-time PCR machine), melting temperature shift of recombinant bromodomains at 2 uM protein
T8 construct: bromodomain
Description: as §1

[2] = target: T7, BRD4(1), first bromodomain of BRD4; test: ITC; co-crystal structure at […] Å; assay type: binding
[3] = target: T7, BRD4(1), first bromodomain of BRD4; test: biochemical; design: thermal shift assay, SAR of isoxazole compounds against BRD4(1); settings: read-out: ΔTm Shift (oC)
Description: The recombinant bromodomains at 2 μM were mixed with 10 μM inhibitors. The assays and data evaluation for melting temperatures were performed using a Real-Time PCR Mx3005p machine (Stratagene) and the protocols previously described. Experiments profiling the final compound (PNZ5) were performed in quadruplicates. Isoxazoles have been explored previously as BET bromodomain inhibitors. We have developed PNZ5, a new isoxazole-based inhibitor originating from the lead compound S1 (Figure 1). PNZ5 was developed as the result of a structure-based lead optimisation program. Dihydroindene S1 was identified as a ligand against BRD4(1) (pIC50 5.9). Investigation of the co-crystal structure of S1 with BRD4(1) [PDB ID 4GPJ] identified a number of positions for potential optimisation: addition of a carbonyl group at C-3 was envisaged to benefit from hydrogen-bonds (H-bonds) to a network of conserved water molecules; replacement of C-2 with a nitrogen would minimise interactions in the narrow ZA channel of BRD4(1) and N-substitution could provide further binding interactions with the protein; and alternative substitution of the hydroxyl at C-1 would provide a handle for further optimisation. […] The three best compounds, S3, S5 and S7, were destined to be separated into their component enantiomers for further evaluation (Supplementary Table 2). […]

T4 sequence (Q03164 whole entry): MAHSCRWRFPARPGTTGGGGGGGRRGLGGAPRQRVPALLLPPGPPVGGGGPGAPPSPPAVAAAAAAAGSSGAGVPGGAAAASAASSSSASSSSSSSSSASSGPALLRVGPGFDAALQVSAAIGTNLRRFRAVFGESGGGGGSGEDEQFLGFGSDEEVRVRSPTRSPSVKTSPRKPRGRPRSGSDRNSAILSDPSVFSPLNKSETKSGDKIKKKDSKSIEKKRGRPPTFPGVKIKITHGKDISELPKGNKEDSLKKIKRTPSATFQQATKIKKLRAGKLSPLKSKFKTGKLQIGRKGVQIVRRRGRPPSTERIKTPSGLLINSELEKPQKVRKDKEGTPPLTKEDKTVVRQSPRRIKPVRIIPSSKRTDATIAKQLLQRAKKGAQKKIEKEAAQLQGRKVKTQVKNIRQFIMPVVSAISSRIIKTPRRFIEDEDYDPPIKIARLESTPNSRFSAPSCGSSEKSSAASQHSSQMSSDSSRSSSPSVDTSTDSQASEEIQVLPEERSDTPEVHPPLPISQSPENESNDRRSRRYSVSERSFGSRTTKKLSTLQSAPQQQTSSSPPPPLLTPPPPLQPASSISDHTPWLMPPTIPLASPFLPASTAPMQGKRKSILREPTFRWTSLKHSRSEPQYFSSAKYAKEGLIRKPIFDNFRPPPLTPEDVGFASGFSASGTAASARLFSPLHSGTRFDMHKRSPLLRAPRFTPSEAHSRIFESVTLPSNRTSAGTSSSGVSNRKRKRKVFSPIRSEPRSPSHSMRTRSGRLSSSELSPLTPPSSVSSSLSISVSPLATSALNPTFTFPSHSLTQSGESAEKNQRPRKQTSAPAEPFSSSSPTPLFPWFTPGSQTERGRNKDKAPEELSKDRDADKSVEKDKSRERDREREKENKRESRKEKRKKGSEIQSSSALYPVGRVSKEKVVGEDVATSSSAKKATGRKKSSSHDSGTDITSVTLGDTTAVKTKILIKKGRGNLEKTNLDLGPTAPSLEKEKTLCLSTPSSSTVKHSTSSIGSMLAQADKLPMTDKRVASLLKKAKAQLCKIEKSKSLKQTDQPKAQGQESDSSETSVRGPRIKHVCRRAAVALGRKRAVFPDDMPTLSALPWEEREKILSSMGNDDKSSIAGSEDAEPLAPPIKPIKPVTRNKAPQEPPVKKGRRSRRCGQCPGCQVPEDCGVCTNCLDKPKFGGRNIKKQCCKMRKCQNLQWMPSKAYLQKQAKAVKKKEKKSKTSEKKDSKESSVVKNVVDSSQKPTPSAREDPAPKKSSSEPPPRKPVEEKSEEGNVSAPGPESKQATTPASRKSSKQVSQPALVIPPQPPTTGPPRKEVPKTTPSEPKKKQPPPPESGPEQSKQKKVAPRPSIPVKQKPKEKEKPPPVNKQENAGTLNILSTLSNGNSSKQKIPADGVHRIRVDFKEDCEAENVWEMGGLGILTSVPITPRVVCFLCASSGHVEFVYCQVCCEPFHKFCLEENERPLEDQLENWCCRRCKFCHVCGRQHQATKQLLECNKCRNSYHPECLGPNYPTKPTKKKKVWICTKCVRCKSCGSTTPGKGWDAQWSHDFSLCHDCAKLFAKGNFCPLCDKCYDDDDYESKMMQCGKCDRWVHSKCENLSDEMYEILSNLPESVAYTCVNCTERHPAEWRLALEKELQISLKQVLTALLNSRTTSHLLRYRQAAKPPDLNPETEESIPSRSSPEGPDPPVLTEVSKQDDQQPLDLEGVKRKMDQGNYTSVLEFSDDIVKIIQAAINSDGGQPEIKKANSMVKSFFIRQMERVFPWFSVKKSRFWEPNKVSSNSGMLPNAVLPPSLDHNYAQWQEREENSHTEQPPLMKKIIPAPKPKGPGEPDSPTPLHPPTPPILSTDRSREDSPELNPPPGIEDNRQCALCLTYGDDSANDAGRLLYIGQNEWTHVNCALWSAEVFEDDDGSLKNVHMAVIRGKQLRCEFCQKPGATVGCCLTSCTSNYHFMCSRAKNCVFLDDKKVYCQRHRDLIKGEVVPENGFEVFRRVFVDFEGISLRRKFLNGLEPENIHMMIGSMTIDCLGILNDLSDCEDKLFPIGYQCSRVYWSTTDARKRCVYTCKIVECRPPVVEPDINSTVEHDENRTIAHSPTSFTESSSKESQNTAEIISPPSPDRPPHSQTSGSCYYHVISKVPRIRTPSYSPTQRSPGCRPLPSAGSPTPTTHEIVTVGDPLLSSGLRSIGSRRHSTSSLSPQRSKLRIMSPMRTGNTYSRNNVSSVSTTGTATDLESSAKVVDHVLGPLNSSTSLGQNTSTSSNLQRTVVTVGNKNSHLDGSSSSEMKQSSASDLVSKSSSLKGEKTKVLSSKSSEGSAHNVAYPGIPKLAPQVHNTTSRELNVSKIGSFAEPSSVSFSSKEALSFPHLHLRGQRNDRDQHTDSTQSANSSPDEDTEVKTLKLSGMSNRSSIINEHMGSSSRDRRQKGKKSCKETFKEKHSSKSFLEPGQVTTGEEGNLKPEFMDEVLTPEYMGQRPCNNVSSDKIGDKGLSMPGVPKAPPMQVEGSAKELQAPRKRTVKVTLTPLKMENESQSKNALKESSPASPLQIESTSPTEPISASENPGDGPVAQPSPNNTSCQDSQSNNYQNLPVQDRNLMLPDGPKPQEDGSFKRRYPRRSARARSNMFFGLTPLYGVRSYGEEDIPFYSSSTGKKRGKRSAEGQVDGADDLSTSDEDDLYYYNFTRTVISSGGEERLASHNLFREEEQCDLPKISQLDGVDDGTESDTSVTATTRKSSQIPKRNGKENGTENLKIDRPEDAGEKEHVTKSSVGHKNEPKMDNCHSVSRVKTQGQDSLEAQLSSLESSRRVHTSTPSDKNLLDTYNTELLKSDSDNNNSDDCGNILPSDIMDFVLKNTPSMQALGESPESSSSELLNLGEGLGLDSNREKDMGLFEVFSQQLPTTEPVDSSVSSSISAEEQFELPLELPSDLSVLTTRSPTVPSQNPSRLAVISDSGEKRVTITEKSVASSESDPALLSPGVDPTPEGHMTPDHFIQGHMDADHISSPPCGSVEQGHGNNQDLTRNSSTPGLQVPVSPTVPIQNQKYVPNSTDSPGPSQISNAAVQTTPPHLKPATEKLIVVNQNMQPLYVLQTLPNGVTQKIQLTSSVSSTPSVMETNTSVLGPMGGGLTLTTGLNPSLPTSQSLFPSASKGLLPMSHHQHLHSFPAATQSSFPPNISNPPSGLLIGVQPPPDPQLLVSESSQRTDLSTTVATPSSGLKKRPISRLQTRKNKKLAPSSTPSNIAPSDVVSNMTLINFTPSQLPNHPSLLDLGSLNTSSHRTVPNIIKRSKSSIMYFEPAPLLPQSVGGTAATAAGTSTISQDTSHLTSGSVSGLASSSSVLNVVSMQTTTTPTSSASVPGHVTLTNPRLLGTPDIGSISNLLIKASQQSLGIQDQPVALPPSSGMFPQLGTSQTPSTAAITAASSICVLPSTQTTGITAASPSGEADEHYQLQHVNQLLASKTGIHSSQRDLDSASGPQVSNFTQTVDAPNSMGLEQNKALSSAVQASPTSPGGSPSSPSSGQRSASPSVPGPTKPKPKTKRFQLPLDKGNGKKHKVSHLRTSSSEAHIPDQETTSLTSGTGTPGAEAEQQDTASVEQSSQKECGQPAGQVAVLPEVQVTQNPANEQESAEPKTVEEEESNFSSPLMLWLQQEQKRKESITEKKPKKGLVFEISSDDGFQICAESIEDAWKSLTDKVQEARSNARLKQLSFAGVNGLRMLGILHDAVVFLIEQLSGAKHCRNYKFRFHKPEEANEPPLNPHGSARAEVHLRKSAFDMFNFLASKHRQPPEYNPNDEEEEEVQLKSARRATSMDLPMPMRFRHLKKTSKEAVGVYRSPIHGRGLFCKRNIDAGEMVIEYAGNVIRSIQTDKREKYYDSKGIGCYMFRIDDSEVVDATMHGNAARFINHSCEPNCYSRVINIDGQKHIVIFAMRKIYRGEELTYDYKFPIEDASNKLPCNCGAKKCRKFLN
T2 sequence (P25440 whole entry): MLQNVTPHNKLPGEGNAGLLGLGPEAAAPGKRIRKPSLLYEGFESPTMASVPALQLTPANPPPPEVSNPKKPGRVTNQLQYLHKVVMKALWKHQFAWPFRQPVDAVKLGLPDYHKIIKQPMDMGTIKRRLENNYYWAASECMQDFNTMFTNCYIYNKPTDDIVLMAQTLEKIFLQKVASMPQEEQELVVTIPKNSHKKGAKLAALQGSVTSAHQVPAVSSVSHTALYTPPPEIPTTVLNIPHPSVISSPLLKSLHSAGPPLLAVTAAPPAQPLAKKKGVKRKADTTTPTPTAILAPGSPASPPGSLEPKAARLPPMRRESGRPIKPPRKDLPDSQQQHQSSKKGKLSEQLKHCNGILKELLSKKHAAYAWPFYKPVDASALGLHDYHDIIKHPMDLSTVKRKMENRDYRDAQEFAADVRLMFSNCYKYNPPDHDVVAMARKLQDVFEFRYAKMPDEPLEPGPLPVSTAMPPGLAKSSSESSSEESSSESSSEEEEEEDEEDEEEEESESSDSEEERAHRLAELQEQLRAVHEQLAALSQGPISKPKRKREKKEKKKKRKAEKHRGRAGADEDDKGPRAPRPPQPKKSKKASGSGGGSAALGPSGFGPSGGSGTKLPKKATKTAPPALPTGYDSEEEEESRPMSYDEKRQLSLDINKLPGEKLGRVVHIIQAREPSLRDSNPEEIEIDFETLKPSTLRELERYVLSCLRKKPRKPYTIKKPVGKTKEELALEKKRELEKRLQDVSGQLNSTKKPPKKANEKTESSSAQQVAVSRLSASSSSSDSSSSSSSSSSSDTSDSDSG

ΔTm at 10 µM (BRDT(2)): 8.81 °C
ΔTm at 10 µM (BRD2(1)): 7.94 °C
ΔTm at 10 µM (ASH1L): 0.41 °C
ΔTm at 10 µM (MLL): 0.49 °C
ΔTm at 10 µM (PB1(4)): 0.36 °C
ΔTm at 10 µM (FALZ): 0.22 °C
ΔTm at 10 µM [1]: 10.1 °C
ΔTm at 10 µM (CREBBP): 2.37 °C
Kd [2]: 5.43 nM
ΔTm at 10 µM [3]: 11.4 °C
SMILES: Cc1noc(C)c1-c1ccc2c(c1)[C@H](c1ccccc1)N(C)C2=O [PNZ5]

Source: article PMC5190074, “BET inhibition as a new strategy for the treatment of gastric cancer” (Oncotarget, 2016)
